Target: HCV NS3 serine protease (Hepatitis C virus genotype 1a, UniProt P27958)
Assay: Inhibition of HCV NS3 serine protease, spectrophotometric assay (5A-pNA cleavage)
Format: biochemical
Conditions: EDVVAbuC-p-nitroanilide (5A-pNA) substrate, 30° C., pNA release at 405 nm
Method: Insofar as compounds of formula (I) are able to inhibit NS3 serine protease, they are of evident clinical utility for the treatment of viral diseases, including HCV. The compounds of this invention are tested for their ability to inhibit HCV in the following spectrophotometric assay.
The spectrophotometric assays were run in a 96-well microtiter plate at 30° C., using a SpectraMax 250 reader (Molecular Devices, Sunnyvale, Calif.) with kinetic capability. Cleavage of EDVVAbuC-p-nitroanilide (5A-pNA) substrate was performed with or without NS4A in the same buffer used for HPLC assays at 30° C., and pNA release was monitored at 405 nm. […]
Kinetic constants for the rapid equilibrium ordered bisubstrate reaction were determined from rate vs. [4A], [EDVV AbuC-pNA] data by non-linear least squares fitting to equation 1 [J. F. Morrison, Biochim. […] Kii and Kis values for peptidyl inhibitors were determined from rate vs. [inhibitor], [substrate] data and fitting to the equation for mixed inhibition: rate=Vmax[S]/{Km(1+[I]/Kis)+[S](1+[I]/Kii)} The commercial program KinetAsyst (StateCollege, Pa.) was used for both procedures. Ki values were calculated from rate vs. [inhibitor] plots by a nonlinear least squares fit of the data to the equation of Morrison for tight binding competitive inhibition [J. F. Morrison, Biochim. […]

Sequence of HCV NS3 serine protease (P27958 1027-1657): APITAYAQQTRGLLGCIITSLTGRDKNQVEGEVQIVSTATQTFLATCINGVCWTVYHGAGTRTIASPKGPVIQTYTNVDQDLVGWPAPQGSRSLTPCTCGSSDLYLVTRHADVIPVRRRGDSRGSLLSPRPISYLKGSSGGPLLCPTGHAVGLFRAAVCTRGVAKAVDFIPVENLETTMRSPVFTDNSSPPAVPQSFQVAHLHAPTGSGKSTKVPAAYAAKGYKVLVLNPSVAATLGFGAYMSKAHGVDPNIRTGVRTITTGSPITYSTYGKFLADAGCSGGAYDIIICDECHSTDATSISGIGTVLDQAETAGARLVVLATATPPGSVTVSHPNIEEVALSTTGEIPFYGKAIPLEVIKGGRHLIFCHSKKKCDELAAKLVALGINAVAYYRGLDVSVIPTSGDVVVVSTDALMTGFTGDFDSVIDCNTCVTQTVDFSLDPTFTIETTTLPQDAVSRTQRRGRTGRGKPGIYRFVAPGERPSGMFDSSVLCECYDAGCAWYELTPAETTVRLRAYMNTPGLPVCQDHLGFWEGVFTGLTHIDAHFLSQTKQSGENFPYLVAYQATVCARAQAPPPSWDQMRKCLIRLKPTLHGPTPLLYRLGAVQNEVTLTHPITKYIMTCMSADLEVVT

SMILES: CCC[C@H](NC(=O)C1C[C@@H](OC(=O)N2CCc3ccccc3C2)CN1C(=O)[C@@H](NC(=O)[C@@H](NC(=O)c1cnccn1)C(C)C)C(C)C)C(=O)C(=O)N1CCC1 (some centres unmarked) [Compound 7]
- Ki: < 1000 nM

SMILES: CCC[C@H](NC(=O)C1C[C@@H](OC(=O)N2CCc3ccccc3C2)CN1C(=O)[C@@H](NC(=O)[C@@H](NC(=O)c1cnccn1)C(C)C)C(C)C)C(=O)C(=O)N1CC(Oc2ccccc2)C1 (some centres unmarked) [Compound 9]
- Ki: < 1000 nM

From patent publication US7494988B2, “Inhibitors of serine proteases, particularly hepatitis C virus NS3 protease” (Vertex Pharmaceuticals Incorporated, priority 2000, dated 2009)
